Measurements reported in patent US20170260178A1 (SPERO GYRASE, INC., priority 2012, published 2017).
Values after ≈ are worked out from the molar mass of the structure shown.

How the values were obtained:
[1] = system: S. aureus (ATCC 29213); assay: Bacterial assay: MIC against S. aureus; format: cell-based, Staphylococcus aureus; conditions: Staphylococcus aureus, ATCC29213, read-out: minimal inhibitory concentration (MIC)
[2] = system: S. pyogenes (ATCC 51339); assay: Bacterial assay: MIC against S. pyogenes; format: cell-based, Streptococcus pyogenes; conditions: Streptococcus pyogenes, ATCC51339, read-out: minimal inhibitory concentration (MIC)

## CCNC(=O)Nc1nc2cc(-c3cnc(C(C)O)nc3)cc(OCc3ccc(C)nc3)c2s1 (stereo not drawn) [Compound 14, 1-ethyl-3-[5-[2-(1-hydroxyethyl)pyrimidin-5-yl]-7-[(6-methyl-3-pyridyl)methoxy]-1,3-benzothiazol-2-yl]urea]
[1]
  MIC: ≤ 1 µg/mL
[2]
  MIC: ≤ 1 µg/mL

## CCNC(=O)Nc1nc2cc(-c3cnc(C(C)O)nc3)cc(-c3cc(C[S+](C)[O-])ccn3)c2s1 (stereo not drawn) [Compound 16, 1-ethyl-3-[5-[2-(1-hydroxyethyl)pyrimidin-5-yl]-7-[4-(methylsulfinylmethyl)-2-pyridyl]-1,3-benzothiazol-2-yl]urea]
[1]
  MIC: 2 µg/mL (≈ 4.03 µM)
[2]
  MIC: ≤ 1 µg/mL

## CCNC(=O)Nc1nc2cc(-c3cnc(C(C)OC(=O)N4CCN(C)CC4)nc3)cc(-c3ccccn3)c2s1 (stereo not drawn) [Compound 18, 1-[5-[2-(ethylcarbamoylamino)-7-(2-pyridyl)-1,3-benzothiazol-5-yl]pyrimidin-2-yl]ethyl 4-methylpiperazine-1-carboxylate]
[1]
  MIC: ≤ 1 µg/mL
[2]
  MIC: ≤ 1 µg/mL

## CCNC(=O)Nc1nc2cc(-c3cnc(C(C)(C)OC(=O)CCC(=O)OC)nc3)cc(-c3ccccn3)c2s1 [Compound 20, O4-[1-[5-[2-(ethylcarbamoylamino)-7-(2-pyridyl)-1,3-benzothiazol-5-yl]pyrimidin-2-yl]-1-methyl-ethyl] O1-methyl butanedioate]
[1]
  MIC: 2 µg/mL (≈ 3.65 µM)
[2]
  MIC: ≤ 1 µg/mL

## CCNC(=O)Nc1nc2cc(-c3cnc(C(C)(C)OC(=O)CCC(=O)O)nc3)cc(-c3ccccn3)c2s1 [Compound 21, 4-[1-[5-[2-(ethylcarbamoylamino)-7-(2-pyridyl)-1,3-benzothiazol-5-yl]pyrimidin-2-yl]-1-methyl-ethoxy]-4-oxo-butanoic acid]
[1]
  MIC: 4 µg/mL (≈ 7.48 µM)
[2]
  MIC: ≤ 1 µg/mL

## CCNC(=O)Nc1nc2cc(-c3ccc(C(O)c4nccn4C)nc3)cc(-c3ccccn3)c2s1 (stereo not drawn) [Compound 24, 1-ethyl-3-[5-[6-[hydroxy-(1-methylimidazol-2-yl)methyl]-3-pyridyl]-7-(2-pyridyl)-1,3-benzothiazol-2-yl]urea]
[1]
  MIC: ≤ 1 µg/mL
[2]
  MIC: ≤ 1 µg/mL

## CCNC(=O)Nc1nc2cc(-c3cnc(C(C)(C)O)nc3)cc(-c3ccc(CN4CCOCC4)cn3)c2s1 [Compound 25, 1-ethyl-3-[5-[2-(1-hydroxy-1-methyl-ethyl)pyrimidin-5-yl]-7-[5-(morpholinomethyl)-2-pyridyl]-1,3-benzothiazol-2-yl]urea]
[1]
  MIC: ≤ 1 µg/mL
[2]
  MIC: ≤ 1 µg/mL

## CCNC(=O)Nc1nc2cc(-c3cnc(C(C)(C)O)nc3)cc(-c3cc(CN4CCCC4)ccn3)c2s1 [Compound 26, 1-ethyl-3-[5-[2-(1-hydroxy-1-methyl-ethyl)pyrimidin-5-yl]-7-[4-(pyrrolidin-1-ylmethyl)-2-pyridyl]-1,3-benzothiazol-2-yl]urea]
[1]
  MIC: ≤ 1 µg/mL
[2]
  MIC: ≤ 1 µg/mL

## CCNC(=O)Nc1nc2cc(-c3cnc(C(C)(C)O)nc3)cc(-c3cc(CN4CCC(O)C4)ccn3)c2s1 (stereo not drawn) [Compound 29, 1-ethyl-3-[5-[2-(1-hydroxy-1-methyl-ethyl)pyrimidin-5-yl]-7-[4-[(3-hydroxypyrrolidin-1-yl)methyl]-2-pyridyl]-1,3-benzothiazol-2-yl]urea]
[1]
  MIC: ≤ 1 µg/mL
[2]
  MIC: ≤ 1 µg/mL

## CCNC(=O)Nc1nc2cc(-c3cnc(C(C)(C)O)nc3)cc(-c3cc(C(C)N4CCOCC4)ccn3)c2s1 (stereo not drawn) [Compound 33, 1-ethyl-3-[5-[2-(1-hydroxy-1-methyl-ethyl)pyrimidin-5-yl]-7-[4-(1-morpholinoethyl)-2-pyridyl]-1,3-benzothiazol-2-yl]urea]
[1]
  MIC: ≤ 1 µg/mL
[2]
  MIC: ≤ 1 µg/mL

## CCNC(=O)Nc1nc2cc(-c3cnc(C(C)(C)O)nc3)cc(-c3cc(CN4CCC(F)(F)C4)ccn3)c2s1 [Compound 34, 1-[7-[4-[(3,3-difluoropyrrolidin-1-yl)methyl]-2-pyridyl]-5-[2-(1-hydroxy-1-methyl-ethyl)pyrimidin-5-yl]-1,3-benzothiazol-2-yl]-3-ethyl-urea]
[1]
  MIC: ≤ 1 µg/mL
[2]
  MIC: ≤ 1 µg/mL

## CCNC(=O)Nc1nc2cc(-c3cnc(C(C)(C)O)nc3)cc(-c3cc(CN4CCCC(F)(F)C4)ccn3)c2s1 [Compound 37, 1-[7-[4-[(3,3-difluoro-1-piperidyl)methyl]-2-pyridyl]-5-[2-(1-hydroxy-1-methyl-ethyl)pyrimidin-5-yl]-1,3-benzothiazol-2-yl]-3-ethyl-urea]
[1]
  MIC: ≤ 1 µg/mL
[2]
  MIC: ≤ 1 µg/mL

## CCNC(=O)Nc1nc2cc(-c3ccc(C(C)(C)O)nc3)c(O)c(CN(C)C)c2s1 [Compound 41]
[1]
  MIC: 16 µg/mL (≈ 37.2 µM)
[2]
  MIC: 16 µg/mL (≈ 37.2 µM)

## CCNC(=O)Nc1nc2cc(-c3cnc(C(C)(C)O)nc3)cc(-c3cc(CN4CC[C@@H](OC)C4)ccn3)c2s1 [Compound 42, 1-ethyl-3-[5-[2-(1-hydroxy-1-methyl-ethyl)pyrimidin-5-yl]-7-[4-[[(3R)-3-methoxypyrrolidin-1-yl]methyl]-2-pyridyl]-1,3-benzothiazol-2-yl]urea]
[1]
  MIC: ≤ 1 µg/mL
[2]
  MIC: ≤ 1 µg/mL

## CCNC(=O)Nc1nc2cc(-c3ccc(C(C)(C)O)nc3)c(O)c(CN3CCOCC3)c2s1 [Compound 44, 1-ethyl-3-[6-hydroxy-5-[6-(1-hydroxy-1-methyl-ethyl)-3-pyridyl]-7-(morpholinomethyl)-1,3-benzothiazol-2-yl]urea]
[1]
  MIC: 16 µg/mL (≈ 33.9 µM)
[2]
  MIC: 16 µg/mL (≈ 33.9 µM)

## CCNC(=O)Nc1nc2cc(-c3cnc(C(C)(C)O)nc3)cc(-c3ccc(N4CCC(C)(C(=O)O)CC4)cn3)c2s1 [Compound 45, 1-[6-[2-(ethylcarbamoylamino)-5-[2-(1-hydroxy-1-methyl-ethyl)pyrimidin-5-yl]-1,3-benzothiazol-7-yl]-3-pyridyl]-4-methyl-piperidine-4-carboxylic acid]
[1]
  MIC: 2 µg/mL (≈ 3.47 µM)
[2]
  MIC: ≤ 1 µg/mL

## CCNC(=O)Nc1nc2cc(-c3cnc(C(C)(C)O)nc3)cc(-c3ccc(CC(=O)O)cn3)c2s1 [Compound 46, 2-[6-[2-(ethylcarbamoylamino)-5-[2-(1-hydroxy-1-methyl-ethyl)pyrimidin-5-yl]-1,3-benzothiazol-7-yl]-3-pyridyl]acetic acid]
[1]
  MIC: 4 µg/mL (≈ 8.12 µM)
[2]
  MIC: 4 µg/mL (≈ 8.12 µM)

## CCNC(=O)Nc1nc2cc(-c3cnc(C4(O)CCCCC4)nc3)cc(-c3ccccn3)c2s1 [Compound 47, 1-ethyl-3-[5-[2-(1-hydroxycyclohexyl)pyrimidin-5-yl]-7-(2-pyridyl)-1,3-benzothiazol-2-yl]urea]
[1]
  MIC: 8 µg/mL (≈ 16.9 µM)
[2]
  MIC: 8 µg/mL (≈ 16.9 µM)

## CCNC(=O)Nc1nc2cc(-c3cnc(C(C)(C)O)s3)cc(-c3ccccn3)c2s1 [Compound 48, 1-ethyl-3-[5-[2-(1-hydroxy-1-methyl-ethyl)thiazol-5-yl]-7-(2-pyridyl)-1,3-benzothiazol-2-yl]urea]
[1]
  MIC: ≤ 1 µg/mL
[2]
  MIC: ≤ 1 µg/mL

## CCNC(=O)Nc1nc2cc(-c3cnc(C(C)(C)O)cn3)cc(-c3ccccn3)c2s1 [Compound 49, 1-ethyl-3-[5-[5-(1-hydroxy-1-methyl-ethyl)pyrazin-2-yl]-7-(2-pyridyl)-1,3-benzothiazol-2-yl]urea]
[1]
  MIC: ≤ 1 µg/mL
[2]
  MIC: ≤ 1 µg/mL

## CCNC(=O)Nc1nc2cc(-c3cnc(C(C)(C)O)nc3)cc(-c3cc(N4CCC(C)(C(=O)O)CC4)ccn3)c2s1 [Compound 50, 1-[2-[2-(ethylcarbamoylamino)-5-[2-(1-hydroxy-1-methyl-ethyl)pyrimidin-5-yl]-1,3-benzothiazol-7-yl]-4-pyridyl]-4-methyl-piperidine-4-carboxylic acid]
[1]
  MIC: ≤ 1 µg/mL
[2]
  MIC: ≤ 1 µg/mL
